From paper PMC10251477, “Doubly Constrained C-terminal of Roc (COR) Domain-Derived Peptides Inhibit Leucine-Rich Repeat Kinase 2 (LRRK2) Dimerization” (ACS Chemical Neuroscience, 2023)
Where “and” joins values, the source holds several entries; their conditions need not be identical. Equal values may be shown once. Bridge positions count the residues as written; N and C are the ends. Square brackets hold non-standard residues; d marks the D form. Peptide text beside a SMILES is read from it. * marks the point of attachment. 5FAM = O=C1OC2(c3ccc(O)cc3Oc3cc(O)ccc32)c2ccc(C(=O)*)cc21; S5 = C=CCCC[C@](C)(N)C(=O)O; AEEEA = NCCOCCOCCOCC(=O)O

Columns and labels:
in vitro = in vitro ADME; conditions: human, cells or culture medium
Description: Fully confluent HEK293 cells were lysed using ice-cold nondenaturing lysis buffer (20 mM Tris HCL, pH 8.0, 137 mM NaCl, 1% Triton X-100, 2 mM EDTA) and incubated for 30 min at 4 °C. Cells were centrifuged for 20 min at 12 000 rpm, and the supernatant was collected and kept on ice. […] Experiments were conducted at 37 °C with agitation for 0, 2, 4, and 6 h. Aliquots were collected and quenched at each indicated time point using an equal volume of 0.1% trifluoroacetic acid (TFA) in acetonitrile. This solution was then centrifuged at 14 000 rpm for 5 min, and the supernatant was used for analysis. Peptide degradation was analyzed on LC-MS using a Zorbax Eclipse XDB-C18 column as a ratio of peptide to control relative to peptide at t = 0 at 280 nm. A flow rate of 1.0 mL/min at 45 °C was used with a 0–100% water/acetonitrile gradient containing 0.1% TFA. Each individual peptide was analyzed in triplicate for each time point.

MBP-tagged RocCOR LRRK2 = biological target: T1, MBP-tagged RocCOR LRRK2 (Homo sapiens, UniProt Q5S007); assay: Fluorescence polarization (FP) binding assay, wild-type RocCOR; conditions: 10 nM FAM-labeled doubly stapled peptide, wild-type RocCOR 5 μM to 1 nM, 2 mM GTP, 10 mM MgCl2, 20 mM MOPS pH 7, 150 mM NaCl, 0.005% CHAPS, room temperature, 2 h, triplicate
T1 sequence (Q5S007 1328-1840 limits assumed): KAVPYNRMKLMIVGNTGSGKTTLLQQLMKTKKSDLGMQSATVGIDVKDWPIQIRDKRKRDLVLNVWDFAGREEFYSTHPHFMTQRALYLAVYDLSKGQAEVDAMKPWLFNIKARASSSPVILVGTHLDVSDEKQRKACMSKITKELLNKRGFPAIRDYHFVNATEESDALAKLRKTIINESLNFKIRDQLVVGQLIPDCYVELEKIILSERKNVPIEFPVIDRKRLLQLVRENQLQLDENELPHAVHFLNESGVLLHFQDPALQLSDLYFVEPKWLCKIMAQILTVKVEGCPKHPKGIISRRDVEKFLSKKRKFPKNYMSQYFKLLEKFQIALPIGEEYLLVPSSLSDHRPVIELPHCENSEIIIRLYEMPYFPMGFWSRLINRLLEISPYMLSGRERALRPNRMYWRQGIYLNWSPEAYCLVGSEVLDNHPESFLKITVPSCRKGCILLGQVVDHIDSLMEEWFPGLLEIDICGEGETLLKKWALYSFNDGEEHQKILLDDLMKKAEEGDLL
Description: Fluorescence polarization assays were conducted on the lead doubly constrained compounds (ECOR and ECOR A12G) with two separate LRRK2 protein constructs: MBP-tagged RocCOR LRRK2 and MBP-tagged R1441C RocCOR LRRK2, both in the presence of 2 mM GTP and 10 mM MgCl2. Protein/peptide interactions were measured in a FP buffer (20 mM MOPS, pH 7, 150 mM NaCl, and 0.005% CHAPS) at room temperature. FAM-labeled peptides were plated in 384-well microtiter plates at a final concentration of 10 nM. Proteins were added over concentrations ranging from 5 μM to 1 nM. Each protein/peptide interaction experiment was carried out at 10 different protein concentrations in triplicate. Each protein/peptide mixture was incubated at room temperature for 2 h and the final reading was performed at the end of this 2 h period.

[1] = test system: LRRK2 substrate Rab10 (phospho-T73) in A549 PPM1H knockout cells; assay: Rab10 phosphorylation immunoblotting (LRRK2 kinase activity); type: cell-based; conditions: Western blot; for downregulation of Rab10 phosphorylation: 1 μM and 2.5 μM peptide (both concentrations), 6 h, pRab10 T73 over total Rab10, normalized to GAPDH and untreated control
Description: A549 PPM1H knockout cells were treated with 1 μM and 2.5 μM of doubly constrained peptide for 6 h. Cells treated with 1 μM MLi-2 were used as a positive control. Cell lysates were separated by SDS-PAGE and transferred to PVDF membranes by wet transfer. pRab10 T73 and total Rab10 signals were blotted on different membranes with GAPDH as a loading control on the same membrane to save the membrane from the stripping step. The membranes were blocked in nonfat milk and probed with Rab10 (phospho-T73) (Abcam; ab241060, Lot; GR327 4620-4), total Rab10 (Cell Signaling Technology; #4262S), and total GAPDH (14C10) (Cell Signaling Technology; #2118S) antibodies overnight at 4 °C, followed by incubation with HRP anti-rabbit secondary antibody, and developed using ECL. The blots were quantified using Image Studio Lite version 5.2 by selecting the bands to obtain the intensity for each band. The phospho-Rab10, total Rab10, and GAPDH signal for every sample were normalized to its untreated control for the same day. The phospho-Rab10 and total Rab10 signal was further normalized to the GAPDH signal (loading control) on the same blot. The graph was plotted with GAPDH normalized phospho-Rab10 signal over total Rab10 signal for every sample (*normalized to untreated sample). [drawing 1]

[2] = test system: GFP-LRRK2 in HEK293 cells; assay: LRRK2 microtubule localization assay in live cells; type: cell-based; conditions: HEK293 cells overexpressing GFP-LRRK2 24 h, 37 °C, SiR-tubulin stain, live imaging
Description: HEK293 cells were transfected with GFP–LRRK2 for 24 h and subsequently treated with DMSO, 1 μM MLi-2, and 2.5 μM ECOR or ECOR A12G peptide for 6 h at 37 °C. The transfected cells were scored single-blinded for skein-like filamentous structures per condition. For tubulin staining, after a 6 h incubation with DMSO, MLi-2, or biotin-labeled peptides, the media was replaced with media containing 1 μM SiR-tubulin (Spirochrome SiR-tubulin Kit (SC002)) and 10 μM verapamil (a broad spectrum efflux pump inhibitor) for 1 h at 37 °C. Live cells were imaged using the 63× oil-immersion objective of a Zeiss LSM800 confocal laser scanning microscope. The Zeiss microscope software ZEN was used to generate channel overlays.

[3] = biological target: T2, LRRK2 G2019S homodimers in HEK293T cells (Homo sapiens, UniProt Q5S007, G2019S); assay: Proximity biotinylation of dimeric LRRK2 in cells; type: cell-based; conditions: FAM-labeled peptide 0.5–2.5 μM, 48 h treatment, ELISA of biotinylated LRRK2 normalized to total LRRK2, biological triplicates
T2 construct: expressed in transfected cells; host or cells: HEK293T
Description: LRRK2 dimerization was assessed using either wild-type LRRK2 homodimers or LRRK2 G2019S homodimers. Experiments were carried out using various concentrations (0.5, μM, 1 μM, or 2.5 μM) of FAM-labeled ECOR or ECOR […]. The LRRK2 dimers used were purified as previously described.[18] To generate these dimers, two cDNAs encoding LRRK2 fusions with biotin ligase (BirA; N-term, Flag-tagged) or an acceptor peptide (AP, N-term; c-Myc tagged) were created. These constructs were expressed in HEK293T cells grown in biotin-depleted medium (OptiMEM+2% FBS). FAM-labeled ECO[…] and ECO[…] were diluted in serum-free medium and added 24 h after transfection. 48 h following the initial treatment (after 72 h of total expression), cells were washed in PBS, given a brief biotin pulse (50 μM, 5 min, 37 °C), washed three more times in PBS, and centrifuged. The cell pellet was snap frozen in a dry ice/methanol bath and stored at -80 °C until analysis. […] Protein-bound SA coated plates were incubated with HRP-conjugated anti-Flag antibodies for 1 h at room temperature to quantify dimeric LRRK2. Total LRRK2 overexpression was quantified using HRP-conjugated LRRK2 antibody (clone N241) on the parallel anti-LRRK2 coated plates (precoated with anti-LRRK2, clone c41-2) and was used to normalize dimeric LRRK2 content. […]

[4] = test system: primary cortical neurons expressing LRRK2 G2019S; assay: Neuronal apoptosis in primary cortical neurons; type: cell-based; conditions: primary cortical neurons (E16 C57BL mice) transfected with Flag-LRRK2 G2019S; 0.5–1 μM peptide, 48 h; % Flag-positive neurons with apoptotic nuclei; three biological replicates
Description: Neurons were then transfected using Lipofectamine 2000 with Flag-tagged WT LRRK2 or G2019S LRRK2. The following day, neurons were treated with 0.5 μM and 1 μM of both ECO[…] and ECO[…] for 48 h. Cells were washed in PBS and fixed in 3.7% paraformaldehyde for 20 min at 4 °C prior to antibody treatments. Images were analyzed and quantifications were performed as previously described.[30] For the determination of apoptotic neuronal death, fixed and stained neurons were visualized under a 40× magnification objective (dry). On each coverslip, a minimum of 100 Flag-positive neurons were identified and the percentage of those with apoptotic profiles was determined. Apoptotic nuclei were defined as neurons having condensed chromatin, fragmented into at least 2 or more “apoptotic bodies”.

[5] = biological target: T3, purified full-length LRRK2 dimer (Homo sapiens, UniProt Q5S007); assay: Mass photometry assay of LRRK2 dimerization; type: biochemical; conditions: LRRK2 at 75 nM and 100 nM, 7.5-fold excess of peptide, 30 min, 30 °C, three measurements
T3 construct: Purified full-length LRRK2 was incubated for 30 min; made in house
Description: LRRK2 was purified as previously described.[30] LRRK2 was diluted to a concentration of 150 nM or 200 nM and incubated with constrained peptide in a 1:7.5 ratio, for 30 min at 30 °C. Mass photometry was performed on a Refeyn Two^MP instrument.[30] The instrument was first focused with 10 μL of buffer (50 mM HEPES, 150 mM NaCl, 5 mM MgCl2, 1 mM DTT, 0.1 mM GDP, and 1% glycerol) after which 10 μL of the incubated LRRK2 solution was added. The samples were recorded for 1 min. Three measurements were processed for each condition, and the data were analyzed by GraphPad Prism.

[6] = 2.5 μM biotin-labeled peptide, 6 h, minimum 500 cells scored

T2 sequence (Q5S007 whole entry G2019S): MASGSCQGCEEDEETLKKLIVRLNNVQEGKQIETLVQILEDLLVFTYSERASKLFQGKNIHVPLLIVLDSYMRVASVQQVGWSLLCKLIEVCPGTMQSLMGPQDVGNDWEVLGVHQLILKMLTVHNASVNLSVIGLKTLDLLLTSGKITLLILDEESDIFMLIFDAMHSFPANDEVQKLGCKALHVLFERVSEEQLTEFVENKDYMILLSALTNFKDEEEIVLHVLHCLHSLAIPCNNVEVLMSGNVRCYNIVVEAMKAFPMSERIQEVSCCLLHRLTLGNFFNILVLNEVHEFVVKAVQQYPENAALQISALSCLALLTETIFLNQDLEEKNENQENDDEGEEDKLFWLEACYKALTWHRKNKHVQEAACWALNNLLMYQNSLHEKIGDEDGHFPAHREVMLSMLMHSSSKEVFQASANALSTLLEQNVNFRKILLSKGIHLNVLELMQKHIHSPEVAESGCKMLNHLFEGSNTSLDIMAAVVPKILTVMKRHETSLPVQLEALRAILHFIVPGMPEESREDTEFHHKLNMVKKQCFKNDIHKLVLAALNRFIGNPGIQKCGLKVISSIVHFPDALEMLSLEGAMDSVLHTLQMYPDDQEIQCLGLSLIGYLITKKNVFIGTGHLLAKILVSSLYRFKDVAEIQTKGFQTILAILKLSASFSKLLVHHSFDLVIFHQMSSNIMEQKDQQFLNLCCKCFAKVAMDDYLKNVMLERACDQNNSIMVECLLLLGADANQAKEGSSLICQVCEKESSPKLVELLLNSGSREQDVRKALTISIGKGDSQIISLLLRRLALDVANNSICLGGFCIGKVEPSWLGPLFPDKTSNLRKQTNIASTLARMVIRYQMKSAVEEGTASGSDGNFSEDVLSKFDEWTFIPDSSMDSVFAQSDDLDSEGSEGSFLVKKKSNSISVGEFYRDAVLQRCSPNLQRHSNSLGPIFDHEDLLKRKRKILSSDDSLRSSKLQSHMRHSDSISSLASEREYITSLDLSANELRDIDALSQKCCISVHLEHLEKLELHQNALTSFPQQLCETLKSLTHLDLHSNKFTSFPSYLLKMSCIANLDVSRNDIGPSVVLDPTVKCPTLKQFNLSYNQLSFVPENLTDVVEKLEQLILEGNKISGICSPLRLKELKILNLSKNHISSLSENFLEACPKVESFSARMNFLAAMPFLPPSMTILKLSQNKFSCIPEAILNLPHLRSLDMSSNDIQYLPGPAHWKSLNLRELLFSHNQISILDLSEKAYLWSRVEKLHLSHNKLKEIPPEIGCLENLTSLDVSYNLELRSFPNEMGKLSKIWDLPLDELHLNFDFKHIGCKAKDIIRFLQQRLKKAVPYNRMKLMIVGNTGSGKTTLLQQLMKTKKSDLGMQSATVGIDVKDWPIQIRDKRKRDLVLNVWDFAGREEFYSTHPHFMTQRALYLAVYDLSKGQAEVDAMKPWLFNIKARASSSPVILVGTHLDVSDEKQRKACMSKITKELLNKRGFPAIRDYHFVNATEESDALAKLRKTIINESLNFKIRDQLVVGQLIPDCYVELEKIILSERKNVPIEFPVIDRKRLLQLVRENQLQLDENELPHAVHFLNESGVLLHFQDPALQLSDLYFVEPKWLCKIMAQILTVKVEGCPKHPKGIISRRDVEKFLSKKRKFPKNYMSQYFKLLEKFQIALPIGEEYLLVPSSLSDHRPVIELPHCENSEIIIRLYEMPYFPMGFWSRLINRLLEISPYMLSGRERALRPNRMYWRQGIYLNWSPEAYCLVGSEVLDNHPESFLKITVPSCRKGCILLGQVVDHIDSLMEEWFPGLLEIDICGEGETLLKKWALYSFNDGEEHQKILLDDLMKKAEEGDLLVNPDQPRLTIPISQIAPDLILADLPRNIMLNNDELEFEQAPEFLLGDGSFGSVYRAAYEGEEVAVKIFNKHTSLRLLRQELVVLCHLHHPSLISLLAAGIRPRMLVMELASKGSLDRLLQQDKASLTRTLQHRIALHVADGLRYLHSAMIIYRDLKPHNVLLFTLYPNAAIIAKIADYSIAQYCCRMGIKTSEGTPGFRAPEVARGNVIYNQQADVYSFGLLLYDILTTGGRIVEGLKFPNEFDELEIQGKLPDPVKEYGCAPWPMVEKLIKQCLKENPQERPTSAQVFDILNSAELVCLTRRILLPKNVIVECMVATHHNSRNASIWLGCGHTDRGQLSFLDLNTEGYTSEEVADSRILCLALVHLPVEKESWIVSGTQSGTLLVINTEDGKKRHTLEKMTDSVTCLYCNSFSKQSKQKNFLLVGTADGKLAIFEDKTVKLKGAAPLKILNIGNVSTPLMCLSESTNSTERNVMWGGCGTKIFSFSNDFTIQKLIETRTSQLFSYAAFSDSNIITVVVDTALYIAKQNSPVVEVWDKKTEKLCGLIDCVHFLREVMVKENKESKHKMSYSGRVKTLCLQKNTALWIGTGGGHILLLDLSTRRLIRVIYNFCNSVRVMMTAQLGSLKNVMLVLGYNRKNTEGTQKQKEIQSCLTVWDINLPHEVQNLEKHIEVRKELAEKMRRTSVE
T3 sequence (Q5S007 whole entry): as the sequence (Q5S007 whole entry G2019S) above, with S2019G counted along it

remaining at 6 h, 0.2 mM (in vitro) | Kd (MBP-tagged RocCOR LRRK2) | downregulation of intracellular LRRK2 G2019S dimerization [3] | inhibition of LRRK2 dimer formation [5] | SMILES | downregulation of Rab10 phosphorylation [1] | localization of LRRK2 to microtubules as filamentous skein-like structures [2, 6] | reduction of cortical neuronal apoptosis [4] | inhibition of Rab10 phosphorylation ([1]; 1 μM MLi-2 (positive control)) | localization of LRRK2 to microtubules as filamentous skein-like structures ([2]; 1 μM MLi-2, 6 h)
> 80% | 45 to 60 nM and 45 nM | 50–60% | – | CC(C)C[C@H](NC(=O)[C@H](CCCCN)NC(=O)[C@]1(C)CCCC=CCCC[C@](C)(NC(=O)[C@H](Cc2c[nH]cn2)NC(=O)[C@H](CCCCN)NC(=O)[C@H](CCC(=O)O)NC(=O)CNC(=O)[C@H](CC(=O)O)NC(=O)[C@H](CC(N)=O)NC(=O)[C@H](Cc2ccccc2)NC(=O)[C@H](CO)NC(=O)[C@H](Cc2ccc(O)cc2)NC(=O)[C@H](CC(C)C)NC(=O)[C@H](C)NC(=O)[C@H](Cc2c[nH]c3ccccc23)NC(=O)[C@]2(C)CCCC=CCCC[C@](C)(NC(=O)[C@H](CCC(=O)O)NC(=O)CNC(=O)[C@H](CCC(=O)O)NC(=O)CNC(=O)[C@H](CCCCN)NC(=O)COCCOCCOCCNC(=O)c3ccc4c(c3)C(=O)OC43c4ccc(O)cc4Oc4cc(O)ccc43)C(=O)N[C@@H](CC(C)C)C(=O)N[C@@H](CC(C)C)C(=O)N[C@@H](CCCCN)C(=O)N2)C(=O)N[C@@H](CCCCN)C(=O)N[C@@H](CCCCN)C(=O)N[C@@H](CC(C)C)C(=O)N1)C(N)=O [ECOR] ({5FAM-AEEEA}-KGEGE[S5]LLK[S5]WALYSFNDGEKH[S5]KKL[S5]KL-NH2; staple 6-10, 23-27) | not found to have measurable effects | no significant localization | over 50% | – | –
– | – | – | – | C[C@@H]1CN(c2cc(-c3n[nH]c4ccc(OC5(C)CC5)cc34)ncn2)C[C@H](C)O1 [MLi-2, reference compound] | – | – | – | nearly completely inhibited | considerable colocalization with tubulin
> 80% | 45 to 60 nM and 57 nM | 50–60% | strongest dimer inhibition | CC(C)C[C@H](NC(=O)[C@H](CCCCN)NC(=O)[C@]1(C)CCCC=CCCC[C@](C)(NC(=O)[C@H](Cc2c[nH]cn2)NC(=O)[C@H](CCCCN)NC(=O)[C@H](CCC(=O)O)NC(=O)CNC(=O)[C@H](CC(=O)O)NC(=O)[C@H](CC(N)=O)NC(=O)[C@H](Cc2ccccc2)NC(=O)[C@H](CO)NC(=O)[C@H](Cc2ccc(O)cc2)NC(=O)[C@H](CC(C)C)NC(=O)CNC(=O)[C@H](Cc2c[nH]c3ccccc23)NC(=O)[C@]2(C)CCCC=CCCC[C@](C)(NC(=O)[C@H](CCC(=O)O)NC(=O)CNC(=O)[C@H](CCC(=O)O)NC(=O)CNC(=O)[C@H](CCCCN)NC(=O)COCCOCCOCCNC(=O)c3ccc4c(c3)C(=O)OC43c4ccc(O)cc4Oc4cc(O)ccc43)C(=O)N[C@@H](CC(C)C)C(=O)N[C@@H](CC(C)C)C(=O)N[C@@H](CCCCN)C(=O)N2)C(=O)N[C@@H](CCCCN)C(=O)N[C@@H](CCCCN)C(=O)N[C@@H](CC(C)C)C(=O)N1)C(N)=O [ECOR A12G] ({5FAM-AEEEA}-KGEGE[S5]LLK[S5]WGLYSFNDGEKH[S5]KKL[S5]KL-NH2; staple 6-10, 23-27) | ~40% | no significant localization | over 50% | – | –
